Assay results as given in patent US11306063B2, “Heterocyclic naphthoquinones derivatives for use in the treatment of cancers including Cushing disease” (Commissariat a l'Energie Atomique et aux Energies …, priority 2016, dated 2022).

Tested on: BT-549 triple negative breast cancer cells
Assay: Wounding assay, BT-549
Type: cell-based
Settings: from 1 μM concentration; mitomycine 2 μg/ml; 24 hours
Description: In addition the migratory capacity of two additional triple negative breast cancer cells lines: the metastatic MDA-MB231 and BT-549 showing high migratory capacity was analyzed in a classical wound assay.
BT-549, MDA-MB231 cell lines were issued from the American Type Culture Collection (ATCC). For wounding assays, cells were seeded in 24-well microplates (Culture Insert 21, ref 250210, Ibidi®). […] Cell spreading was then visualized during 24 hours by videomicroscopy (1 acquisition each 30 min). A representative picture of 3 is presented at 0 and 12 hours of drug treatment out. In Graphs, curves represents the empty surface (devoid of cells) between the two cell layers (delimited by using Image J software).

CCCCS(=O)(=O)Cc1nc2c(nc1CS(=O)(=O)CCCC)C(=O)c1ccccc1C2=O [PCR6236]
cell migration in wounding assay, BT-549: prevents triple negative breast cancer cell migration
